Source: US20080255031A1, “METHOD FOR ENHANCING INSULIN SECRETION” (priority 2007, published 2008)
pEC50, pKi: −log10 of the molar value. “And” between values parts separate entries of the source, which are not always exact repeats. Equal values may be shown once. Read-outs that look alike come from different tables or passages of the source.

Columns and labels:
β1-adrenergic receptors = target: T1, β1-adrenergic receptors (Rattus norvegicus, UniProt P18090); assay: Radioligand binding to β1-ARs, membranes from rat ventricle
T1 construct: membranes prepared from rat ventricle and guinea-pig lung, respectively; from tissue; host or cells: rat ventricle membranes
Description: (§1) The objective of this example is to present the affinities and potencies of ranolazine and its S- and R-enantiomers for β1 and β2-adrenergic receptors (ARs) in various tissues and cell lines. Using radioligand binding techniques, competition of the compounds for specific radioligand binding to β1- and β2-ARs was determined using membranes prepared from rat ventricle and guinea-pig lung, respectively.

IKs = assay: Whole cell IKs in isolated canine left ventricular midmyocardial cells; assay type: cell-based; conditions: 30 μM
Description: Whole cell currents were recorded from isolated canine left ventricular midmyocrdial cells at 37° C. IKr and IKs were recorded during standard pulse protocols. Action potentials recorded at basic cycle lengths (BCL) of 300 and 2000 ms were used as command waveforms during voltage claim to measure late INa. Enantiomeric effects were determined at concentrations of 3, 10, and 30 μM.
Late INa was evaluated at two voltages during the plateau and final repolarization of an action potential voltage claims.

β1-ARs = target: T2, β1-ARs (Rattus norvegicus, UniProt P18090); assay: Isoproterenol-induced cAMP accumulation in rat C6 glioma cells (mostly β1-ARs); assay type: cell-based; conditions: read-out: KB (Schild), β1-ARs
T2 construct: rat C6 glioma cells (expressing mostly β1-ARS); endogenous in cells; host or cells: rat C6 glioma cells
Description: (§2) The effect of ranolazine and its S- and R-enantiomers on cAMP accumulations in rat C6 glioma cells (expressing mostly β1-ARS) and DDT1 MF-2 hamster smooth muscles cells (expressing mostly β2-ARs) were determined. […] However, in the presence of the compounds, the concentration-response curve for the isoproterenol-induced increase in cAMP was shifted to the right with no apparent reduction in the maximal responses, indication that these compounds are competitive antagonists of β1- and β2-ARs. Using the Schild equations for multiple concentrations of the antagonist (ranolazine) or for a single concentration of the enantiomers, the KB values for ranolazine and its S- and R-enantiomers were 9.7, 8.0, and >50 μM (for β1-ARS) and 12.2, 9.0, and >50 μM (for β2-ARs). In summary, ranolazine and its S-enantiomer are competitive antagonists of β1 and β2-ARS with the S-enantiomer having the highest binding affinities of all.

[1] = tested on: Female rabbit isolated hearts; assay: LV monophasic action potential duration (MAPD90) in female rabbit isolated hearts; conditions: for pEC50: Oryctolagus cuniculus
Description: The objective of this example is to present the effects of ranolazine and the R- and S-enantiomers of ranolazine on left ventricular monophasic action potential duration (LV MAPD), regional LV dispersion of MAPD (apex-base) and arrhythmogenesis. Female rabbit isolated hearts were perfused with modified K-H solution and paced at a constant rate of 1 Hz after surgical-induced complete atrioventricular block. LV MAPs from the base and apex were measured using contact MAP electrodes.
Each animal was sedated using 6 mg/kg xylazine i.m. and 40 mg/kg ketamine i.m. and then anesthetized by a “cocktail” (ketamine 15 mg/kg+xylazine 4 mg/kg in 1.5 mL saline) i.v. via the marginal ear vein. The thorax was quickly opened. The heart was excised and placed in a modified Krebs-Henseleit (K-H) solution at room temperature. The K-H solution contained (in mmol/L): NaCl 118, KCl 2.8, KH2PO4 1.2, CaCl2 2.5, MgSO4 0.5, pyruvate 2.0, glucose 5.5, Na2EDTA 0.57 and NaHCO3 25. The solution was continuously gassed with 95% O2 and 5% CO2, and its pH was adjusted to 7.4. The aorta was rapidly catheterized and the heart was perfused by the method of Langendorff with K-H solution warmed to 36-36.5° C. at a rate of 20 mL/min with a roller pump (Gilson Minipuls3, Middleton, Wis.). Perfusion pressure was measured (with a Biopac MP 150 pressure transducer, Goleta, Calif.) from a side port of the aortic catheter. To facilitate exit of fluid from the chamber of the left ventricle (LV), the leaflets of the mitral valve were trimmed with fine spring-handled scissors. The right atrial wall was partially removed for AV node ablation to block AV conduction.
Complete AV block was induced by surgical ablation (heated) of AV nodal area. […] A bipolar Teflon-coated electrode was placed on the right ventricular septum to pace the heart. Electrical stimuli 3 msec in width and 3-fold threshold amplitude were delivered to the pacing electrode at a frequency of 1 Hz using a Grass S48 stimulator (W. Warwick, R.I.).
After initiation of ventricular pacing, a 30-40 min delay was allowed for heart rhythm and perfusion pressure to achieve a steady state, an essential experimental condition for recording a good quality monophasic action potential (MAP).
Monophasic action potentials (MAP) and ECG electrodes from Harvard Apparatus Inc. (Holliston, Mass.) were used to record left ventricular MAPs and bipolar ECG. Two MAP electrodes were placed on the epicardial ventricular free wall below the level of atrial-ventricular valves to record basal MAP and apex to record apical MAP signals, respectively. MAP electrodes were pressure-contact Ag—AgCl electrodes attached to a circular holder with springs to maintain the electrodes' contact with the LV epicardial surface. […] Signals were saved on a computer hard disk for subsequent analysis. Bipolar electrocardiogram (ECG) was generated using an isolated-heart ECG apparatus (Harvard Apparatus, Holliston, Mass.) attached to Biopac amplifier system. Coronary perfusion pressure was measured using a pressure transducer (Biopac or PowerLab pressure measuring system). […] All signals were saved on a computer hard disk for subsequent analysis.
Original MAP profiles of 3-5 consecutive beats were superimposed to get one average signal using computer software (Biopac, Goleta, Calif.) and then transferred into Microsoft Excel software and plotted to measure the duration of the MAP at the level at which repolarization is 90% completed (MAPD90).

normal SD rats = assay: Insulin levels during intravenous glucose tolerance test (IVGTT) in normal SD rats; assay type: in vivo, rat; conditions: 15 mg/kg, 30 minutes prior to glucose
Description: Each rat was subjected to an IVGTT according to the method of […] et al, Metabolism 42, (1):1-6, 1993. The rats were fasted overnight before administration of the test. One group of eleven rats was given only saline prior to glucose load while the second group of seven rats was given ranolazine prior to glucose load. Glucose was administered at time zero while ranolazine was administered 30 minutes prior to glucose at a dose of 15 mg/kg of body weight. Then, the insulin concentrations in the blood were measured at -30, 0, 2, 4, 7, 15 and 30 minutes. […] The procedure used was that described in Example 2 above.

β2-adrenergic receptors = target: T3, β2-adrenergic receptors (Cavia porcellus, UniProt Q8K4Z4); assay: Radioligand binding to β2-ARs, membranes from guinea-pig lung
T3 construct: membranes prepared from rat ventricle and guinea-pig lung, respectively; from tissue; host or cells: guinea-pig lung membranes
Description: as §1

β2-ARs = target: T4, β2-ARs (Mesocricetus auratus, UniProt P04274); assay: Isoproterenol-induced cAMP accumulation in DDT1 MF-2 hamster smooth muscle cells (mostly β2-ARs); assay type: cell-based; conditions: read-out: KB (Schild), β2-ARs
T4 construct: DDT1 MF-2 hamster smooth muscles cells (expressing mostly β2-ARs); endogenous in cells; host or cells: DDT1 MF-2 hamster smooth muscle cells
Description: as §2

[2] = paced at 1 Hz, site not stated, read-out: EC50 to prolong LV MAPD90

T3 sequence (Q8K4Z4 whole entry): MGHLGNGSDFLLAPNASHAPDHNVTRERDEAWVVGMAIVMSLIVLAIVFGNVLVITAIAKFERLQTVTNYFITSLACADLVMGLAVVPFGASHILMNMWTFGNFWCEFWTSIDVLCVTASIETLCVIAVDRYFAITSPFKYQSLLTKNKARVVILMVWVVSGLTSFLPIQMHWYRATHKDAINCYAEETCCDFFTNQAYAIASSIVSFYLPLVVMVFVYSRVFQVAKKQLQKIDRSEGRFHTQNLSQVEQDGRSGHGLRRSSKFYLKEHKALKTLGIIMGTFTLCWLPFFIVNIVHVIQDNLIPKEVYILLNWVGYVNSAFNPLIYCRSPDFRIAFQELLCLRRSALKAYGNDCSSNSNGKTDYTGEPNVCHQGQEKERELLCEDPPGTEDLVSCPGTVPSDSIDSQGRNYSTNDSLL
T1 sequence (P18090 whole entry): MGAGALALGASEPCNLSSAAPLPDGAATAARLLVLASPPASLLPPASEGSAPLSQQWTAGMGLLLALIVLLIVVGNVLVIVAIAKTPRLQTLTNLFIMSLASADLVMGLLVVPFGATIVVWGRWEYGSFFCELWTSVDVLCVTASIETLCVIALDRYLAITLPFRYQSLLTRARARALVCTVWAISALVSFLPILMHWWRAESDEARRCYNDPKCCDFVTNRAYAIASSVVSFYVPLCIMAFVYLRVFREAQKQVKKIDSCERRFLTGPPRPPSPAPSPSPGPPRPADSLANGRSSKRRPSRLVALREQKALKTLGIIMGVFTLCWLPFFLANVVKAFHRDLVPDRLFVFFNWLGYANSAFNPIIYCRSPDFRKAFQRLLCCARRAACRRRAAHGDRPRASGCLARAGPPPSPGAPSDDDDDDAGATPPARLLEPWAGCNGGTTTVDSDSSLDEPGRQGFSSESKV
T2 sequence (P18090 whole entry): as above
T4 sequence (P04274 whole entry): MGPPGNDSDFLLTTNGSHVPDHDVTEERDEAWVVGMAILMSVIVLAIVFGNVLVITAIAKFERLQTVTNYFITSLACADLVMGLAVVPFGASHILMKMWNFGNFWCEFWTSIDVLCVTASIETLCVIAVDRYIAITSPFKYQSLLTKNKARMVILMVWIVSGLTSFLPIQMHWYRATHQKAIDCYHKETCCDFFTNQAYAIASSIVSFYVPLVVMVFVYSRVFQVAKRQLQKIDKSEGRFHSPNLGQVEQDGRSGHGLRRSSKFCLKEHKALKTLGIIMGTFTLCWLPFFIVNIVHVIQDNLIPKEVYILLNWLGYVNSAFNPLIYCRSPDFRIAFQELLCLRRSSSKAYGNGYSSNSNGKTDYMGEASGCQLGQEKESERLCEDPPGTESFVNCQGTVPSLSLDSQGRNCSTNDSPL

pKi (β1-adrenergic receptors) | Kb (β1-ARs) | pEC50 [1, 2] | pKi (β2-adrenergic receptors) | Kb (β2-ARs) | pEC50 ([1]; paced at 1 Hz, read-out: EC50 to prolong LV MAPD90 (Apex)) | pEC50 ([1]; paced at 1 Hz, read-out: EC50 to prolong LV MAPD90 (Base)) | induction of EADs, PVBs or VT ([1]; at any concentration) | Compound | IKs reduced (IKs) | maximal increase of MAPD90 ([1]; paced at 1 Hz, site not stated) | insulin levels relative to baseline during IVGTT, compared to vehicle treated rats (normal SD rats) | regional MAPD dispersion and PVBs or VT ([1]; 1-100 μM) | maximal increase of apical MAPD90 above control ([1]; paced at 1 Hz, 30-100 μmol/L) | maximal increase of basal MAPD90 above control ([1]; paced at 1 Hz, 30-100 μmol/L)
5.32 | 8 µM | 5.23 | 5.17 | 9 µM | – | – | – | COc1ccccc1OC[C@@H](O)CN1CCN(CC(=O)Nc2c(C)cccc2C)CC1 [S-ranolazine, (S)-(−)-N-(2,6-dimethylphenyl)-4-[2-hydroxy-3-(2-methoxyphenoxy)-propyl]-1-piperazineacetamide] | 27% | 28±4% | not different from the vehicle treated rats | – | – | –
5.07 | 9.7 µM | – | 4.83 | 12.2 µM | 5.32 | 5.37 | did not induce any EADs, PVBs or VT | COc1ccccc1OCC(O)CN1CCN(CC(=O)Nc2c(C)cccc2C)CC1 (racemic) [ranolazine, (±)-N-(2,6-dimethylphenyl)-4-[2-hydroxy-3-(2-methoxyphenoxy)propyl]-1-piperazine-acetamide] | – | – | higher | without increasing regional MAPD dispersion or eliciting premature ventricular beats (PVBs) or ventricular tachycardia (VT) | 35±4% and 35.2±4.1% | 32±4% and 32.2±4.2%
< 4.00 | > 50 µM | 5.19 | 4.41 | > 50 µM | – | – | – | COc1ccccc1OC[C@H](O)CN1CCN(CC(=O)Nc2c(C)cccc2C)CC1 [R-ranolazine, (R)-(+)-N-(2,6-dimethylphenyl)-4-[2-hydroxy-3-(2-methoxyphenoxy)-propyl]-1-piperazineacetamide] | 5% | 22±5% | higher | – | – | –
